The text below walks through data of patent US20240033237A1, “USE OF A-KETOGLUTARATE IN MANUFACTURE OF MEDICAMENT” (TONGJI UNIVERSITY, priority 2019, published 2024).

The test system of one experiment is skin hair follicles. Put plainly: Regeneration level of skin hair follicles in mice, intradermal injection, histological staining. Format: in vivo. As to conditions: 12-month-old mice, 4 weeks after injection, vs PBS group. The protocol:
The skin on the back of posterior limbs of 12-month-old aged mice was taken, and the treatment group was intradermally injected with PBS-diluted α-KG (1 μl of dimethyl-α-KG dissolved in 4 μl of PBS). A sham operation was performed and PBS was injected as a control. Histological staining was performed to observe the changes of skin hair follicles at 4 weeks after injection.

Another experiment has as its system articular cartilage. In words: Mouse model of knee osteoarthritis (DMM), intra-articular injection, Safranin-O/fast green staining and OARSI score. Type of experiment: in vivo, C57BL/6 mice. As to conditions: 8 weeks after DMM surgery, once a week, 5 times. The source says:
Male C57BL/6 mice (n=30) were purchased from Shanghai Slac laboratory animal Co., Ltd. and reared to 8 weeks of age. The animal experimental operation method was reviewed and approved by the Ethics Committee of Tongji University School of Medicine. Male C57BL/6 mice reared to 8 weeks of age were anaesthetized, and a longitudinal incision was made in the medial side of the knee joint. The articular cavity was opened along the medial side of the patellar ligament, the fat pad in the intercondylar area was bluntly separated, and the meniscus tibial ligament connecting the medial meniscus was found and transected. The incision was closed after hemostasis by compression, and the mice were continued to be fed. The mice were anesthetized and sacrificed at 4, 8 and 12 weeks after surgery (n=8 for each group), and the knee joints were isolated for histological examination, forming the treatment group. Male C57BL/6 mice reared to 8 weeks of age were anaesthetized, and a longitudinal incision was made in the medial side of the knee joint. […] The damage degree of articular cartilage was observed by Safranin-O/ fast green staining and quantitatively evaluated by OARSI score. […]

Consider `COC(=O)CCC(=O)C(=O)OC` [α-KG, dimethyl-α-ketoglutarate], for which the “number of skin hair follicles” value in the experiment on skin hair follicles was “significantly increased”. Besides, in the experiment with articular cartilage, the “OARSI score, damage degree of articular cartilage” value is reported as “significantly inhibit the progression of osteoarthritis”. Also, the “cartilage damage / progression of osteoarthritis (Safranin O/fast green histology)” value in the experiment on articular cartilage (DMM+αKG group vs DMM group) was “no significant cartilage damage”.
